In patent US20260240851A1, “Treatment of Parkinson's Disease in a Patient Using a Glucocerebrosidase Activator” (BIAL - R&D Investments, S.A., priority 2023, published 2026):
Where two headings read alike, the source gives them in different places.

How the values were obtained:
[1] = LTI-291-002 multiple ascending dose study: plasma and CSF pharmacokinetics; assay type: in vivo, human; details: for AUC(0-t) / half-life / AUC(0-inf) / Cmax: human, plasma, oral
Experimental: This study was a phase 1, randomized, double-blind, placebo-controlled, multiple ascending dose study of Compound A in 4 cohorts of middle-aged to elderly healthy participants (aged 52 to 75 years). […] A total of 39 healthy subjects were enrolled in 4 sequential cohorts. Subjects in each cohort received once-daily oral doses of 3 mg (n=7), 10 mg (n=8), 30 mg (n=8), or 60 mg (n=8) Compound A or placebo (n=8) for 14 days. Pharmacokinetic parameters were determined for each dose at Day 1, Day 7, and Day 14. Cerebrospinal fluid samples for Compound A concentrations were measured before the first dose and 4 hours after the last dose for each dose level. GluCer, glucosyl sphingosine (GluSph), and lactosyl-ceramide (LacCer) were measured in plasma, PBMCs, and CSF as biomarkers of pharmacological effects. Pharmacodynamic measurements consisted of battery of CNS (NeuroCart®) assessments including Saccadic Eye Movements, Smooth Pursuit Eye Movements, Adaptive Tracking, Body Sway, Visual Verbal Learning Test, and pharmaco-EEG.

[2] = BIA 28-6156-105: safety and tolerability
[3] = 3 mg, 3 mg daily, dose 14, geometric mean
[4] = 10 mg, 10 mg daily, dose 1, geometric mean
[5] = 10 mg, 10 mg daily, dose 7, geometric mean
[6] = 10 mg, 10 mg daily, dose 14, geometric mean
[7] = 30 mg, 30 mg daily, dose 1, geometric mean
[8] = 30 mg, 30 mg daily, dose 7, geometric mean
[9] = 30 mg, 30 mg daily, dose 14, geometric mean
[10] = 60 mg, 60 mg daily, dose 1, geometric mean
[11] = 60 mg, 60 mg daily, dose 7, geometric mean
[12] = 60 mg, 60 mg daily, dose 14, geometric mean

Compound: CCCCCO[C@H]1CC[C@H](NC(=O)c2cnn3c(C)cc(C)nc23)CC1 [Compound A, 5,7-dimethyl-N-((1S*,4S)-4-(pentyloxy)cyclohexyl)pyrazolo[1,5-a]pyrimidine-3-carboxamide]
- AUC(0-t) ([1]; 3 mg, 3 mg daily, dose 7, geometric mean, read-out: AUC0-last): 2420 ng·h/mL
- half-life ([1]; 3 mg, 3 mg daily, dose 7, geometric mean, read-out: t½ (converted)): 31.3 h
- AUC(0-inf) [1, 3]: 7560 ng·h/mL
- Cmax [1, 3]: 153 ng/mL
- AUC(0-t) ([1]; 3 mg, 3 mg daily, dose 14, geometric mean, read-out: AUC0-24): 2770 ng·h/mL
- AUC(0-t) ([1]; 3 mg, 3 mg daily, dose 14, geometric mean, read-out: AUC0-last): 4510 ng·h/mL
- half-life ([1]; 3 mg, 3 mg daily, dose 14, geometric mean, read-out: t½ (converted)): 36.5 h
- AUC(0-inf) [1, 4]: 6130 ng·h/mL
- Cmax [1, 4]: 307 ng/mL
- AUC(0-t) ([1]; 10 mg, 10 mg daily, dose 1, geometric mean, read-out: AUC0-24): 3410 ng·h/mL
- AUC(0-t) ([1]; 10 mg, 10 mg daily, dose 1, geometric mean, read-out: AUC0-last): 3380 ng·h/mL
- half-life ([1]; 10 mg, 10 mg daily, dose 1, geometric mean, read-out: t½ (converted)): 20.7 h
- AUC(0-inf) [1, 5]: 17800 ng·h/mL
- Cmax [1, 5]: 505 ng/mL
- AUC(0-t) ([1]; 10 mg, 10 mg daily, dose 7, geometric mean, read-out: AUC0-24): 7730 ng·h/mL
- AUC(0-t) ([1]; 10 mg, 10 mg daily, dose 7, geometric mean, read-out: AUC0-last): 7820 ng·h/mL
- half-life ([1]; 10 mg, 10 mg daily, dose 7, geometric mean, read-out: t½ (converted)): 28.7 h
- AUC(0-inf) [1, 6]: 18600 ng·h/mL
- Cmax [1, 6]: 493 ng/mL
- AUC(0-t) ([1]; 10 mg, 10 mg daily, dose 14, geometric mean, read-out: AUC0-24): 7510 ng·h/mL
- AUC(0-t) ([1]; 10 mg, 10 mg daily, dose 14, geometric mean, read-out: AUC0-last): 11900 ng·h/mL
- half-life ([1]; 10 mg, 10 mg daily, dose 14, geometric mean, read-out: t½ (converted)): 32.1 h
- AUC(0-inf) [1, 7]: 22600 ng·h/mL
- Cmax [1, 7]: 869 ng/mL
- AUC(0-t) ([1]; 30 mg, 30 mg daily, dose 1, geometric mean, read-out: AUC0-24): 10600 ng·h/mL
- AUC(0-t) ([1]; 30 mg, 30 mg daily, dose 1, geometric mean, read-out: AUC0-last): 10400 ng·h/mL
- half-life ([1]; 30 mg, 30 mg daily, dose 1, geometric mean, read-out: t½ (converted)): 26 h
- AUC(0-inf) [1, 8]: 56800 ng·h/mL
- Cmax [1, 8]: 1600 ng/mL
- AUC(0-t) ([1]; 30 mg, 30 mg daily, dose 7, geometric mean, read-out: AUC0-24): 26500 ng·h/mL
- AUC(0-t) ([1]; 30 mg, 30 mg daily, dose 7, geometric mean, read-out: AUC0-last): 26300 ng·h/mL
- half-life ([1]; 30 mg, 30 mg daily, dose 7, geometric mean, read-out: t½ (converted)): 25.7 h
- AUC(0-inf) [1, 9]: 139000 ng·h/mL
- Cmax [1, 9]: 1500 ng/mL
- AUC(0-t) ([1]; 30 mg, 30 mg daily, dose 14, geometric mean, read-out: AUC0-24): 26200 ng·h/mL
- AUC(0-t) ([1]; 30 mg, 30 mg daily, dose 14, geometric mean, read-out: AUC0-last): 45000 ng·h/mL
- half-life ([1]; 30 mg, 30 mg daily, dose 14, geometric mean, read-out: t½ (converted)): 75 h
- AUC(0-inf) [1, 10]: 39300 ng·h/mL
- Cmax [1, 10]: 1950 ng/mL
- AUC(0-t) ([1]; 60 mg, 60 mg daily, dose 1, geometric mean, read-out: AUC0-24): 19600 ng·h/mL
- AUC(0-t) ([1]; 60 mg, 60 mg daily, dose 1, geometric mean, read-out: AUC0-last): 19200 ng·h/mL
- half-life ([1]; 60 mg, 60 mg daily, dose 1, geometric mean, read-out: t½ (converted)): 25.1 h
- AUC(0-inf) [1, 11]: 139000 ng·h/mL
- Cmax [1, 11]: 3190 ng/mL
- AUC(0-t) ([1]; 60 mg, 60 mg daily, dose 7, geometric mean, read-out: AUC0-24): 52100 ng·h/mL
- AUC(0-t) ([1]; 60 mg, 60 mg daily, dose 7, geometric mean, read-out: AUC0-last): 50300 ng·h/mL
- half-life ([1]; 60 mg, 60 mg daily, dose 7, geometric mean, read-out: t½ (converted)): 35.8 h
- AUC(0-inf) [1, 12]: 130000 ng·h/mL
- Cmax [1, 12]: 3070 ng/mL
- AUC(0-t) ([1]; 60 mg, 60 mg daily, dose 14, geometric mean, read-out: AUC0-24): 50900 ng·h/mL
- AUC(0-t) ([1]; 60 mg, 60 mg daily, dose 14, geometric mean, read-out: AUC0-last): 82000 ng·h/mL
- half-life ([1]; 60 mg, 60 mg daily, dose 14, geometric mean, read-out: t½ (converted)): 32.9 h
- half-life ([1]; after the 1st dose, across dose levels, read-out: mean t1/2): 20.7 to 27.9 h
- half-life ([1]; after the 7th dose, across dose levels, read-out: mean t1/2): 25.7 to 35.8 h
- half-life ([1]; after the 14th dose, across dose levels, read-out: mean t1/2): 32.1 to 75 h
- steady-state conditions ([1]; once-daily dosing): achieved by the 7th daily dose
- laboratory values considered related to Compound A ([2]; after 150 mg Compound A): increased ALT and increased GGT in 1 subject
- deaths or other SAEs ([2]; in vivo): No deaths or other SAEs
- TEAEs considered related to Compound A 150 mg ([2]; reported in 2 subjects): 4 of 90 TEAEs
